Results as given in PubChem BioAssay AID1918945 (Molecular Pharmacology Branch, DTP, NCI, 2023).
pIC50: −log10 of the molar value. Several values for one entry are separate records, joined by “and”; a condition that tells them apart may be missing. Equal entries are not always repeated.

Tested on: 883617-216-R-J1-PDC complex spheroid viability
Experiment: Anticancer human tumor 883617-216-R-J1-PDC patient-derived bladder carcinoma cell line growth inhibition
Conditions: for viability, T/C: stronger effect = lower value
How it was run: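 Multicellular complex spheroids of tumor cells with human endothelial cells (HUVEC) and mesenchymal stem cells; the LSD1 inhibitor iadademstat was combined with standard-of-care or investigational agents. Top concentration at or near clinical Cmax, half-log dilutions; final DMSO ≤0.25%.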

[1] = curve of first compound, second compound 0.1 µM
[2] = curve of first compound, second compound 0.316 µM
[3] = curve of first compound, second compound 1 µM
[4] = curve of first compound, second compound 3.16 µM
[5] = curve of first compound, second compound 10 µM
[6] = second compound 0.1 µM, first compound 0.0316 µM
[7] = second compound 0.1 µM, first compound 0.1 µM
[8] = second compound 0.1 µM, first compound 0.316 µM
[9] = second compound 0.1 µM, first compound 1 µM
[10] = second compound 0.316 µM, first compound 0.0316 µM
[11] = second compound 0.316 µM, first compound 0.1 µM
[12] = second compound 0.316 µM, first compound 0.316 µM
[13] = second compound 0.316 µM, first compound 1 µM
[14] = second compound 1 µM, first compound 0.0316 µM
[15] = second compound 1 µM, first compound 0.1 µM
[16] = second compound 1 µM, first compound 0.316 µM
[17] = second compound 1 µM, first compound 1 µM
[18] = second compound 3.16 µM, first compound 0.0316 µM
[19] = second compound 3.16 µM, first compound 0.1 µM
[20] = second compound 3.16 µM, first compound 0.316 µM
[21] = second compound 3.16 µM, first compound 1 µM
[22] = second compound 10 µM, first compound 0.0316 µM
[23] = second compound 10 µM, first compound 0.1 µM
[24] = second compound 10 µM, first compound 0.316 µM
[25] = second compound 10 µM, first compound 1 µM
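Note: exposure lasted seven days after three days of spheroid growth.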
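Throughout, for viability, T/C: 100% = DMSO vehicle control luminescence.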

`Nc1ccn(C2OC(CO)C(O)C2(F)F)c(=O)n1` (configuration not stated) + NC1CCC(NC2CC2c2ccccc2)CC1 gave a pIC50 [1] greater than 9.02, a pIC50 [2] greater than 9.02 and a pIC50 [3] greater than 9.02. The pIC50 [4] was greater than 9.02, the pIC50 [5] was greater than 9.02 and the viability, T/C (second compound 0.1 µM, first compound 0.000949 µM) was 28.7%. It also gave a viability, T/C (second compound 0.1 µM, first compound 0.003 µM) of 20.4%, a viability, T/C (second compound 0.1 µM, first compound 0.00949 µM) of 24.2% and a viability, T/C (second compound 0.1 µM, first compound 0.03 µM) of 26.4%. It also gave a viability, T/C (second compound 0.1 µM, first compound 0.0949 µM) of 25.9%, a viability, T/C (second compound 0.1 µM, first compound 0.3 µM) of 18.2% and a viability, T/C (second compound 0.316 µM, first compound 0.000949 µM) of 24.9%. For the same molecule, the viability, T/C (second compound 0.316 µM, first compound 0.003 µM) was 17.3%, the viability, T/C (second compound 0.316 µM, first compound 0.00949 µM) was 23.6% and the viability, T/C (second compound 0.316 µM, first compound 0.03 µM) was 22.4%. The viability, T/C (second compound 0.316 µM, first compound 0.0949 µM) was 23.4%, the viability, T/C (second compound 0.316 µM, first compound 0.3 µM) was 23.6% and the viability, T/C (second compound 1 µM, first compound 0.000949 µM) was 28.2%. It also gave a viability, T/C (second compound 1 µM, first compound 0.003 µM) of 19.7%, a viability, T/C (second compound 1 µM, first compound 0.00949 µM) of 24.1% and a viability, T/C (second compound 1 µM, first compound 0.03 µM) of 22.6%. The viability, T/C (second compound 1 µM, first compound 0.0949 µM) was 22%, the viability, T/C (second compound 1 µM, first compound 0.3 µM) was 21.7% and the viability, T/C (second compound 3.16 µM, first compound 0.000949 µM) was 24.7%. For the same molecule, the viability, T/C (second compound 3.16 µM, first compound 0.003 µM) was 21.7%, the viability, T/C (second compound 3.16 µM, first compound 0.00949 µM) was 22.3% and the viability, T/C (second compound 3.16 µM, first compound 0.03 µM) was 21.6%. The viability, T/C (second compound 3.16 µM, first compound 0.0949 µM) was 22.7%, the viability, T/C (second compound 3.16 µM, first compound 0.3 µM) was 19.2% and the viability, T/C (second compound 10 µM, first compound 0.000949 µM) was 30.5%. It also gave a viability, T/C (second compound 10 µM, first compound 0.003 µM) of 20.6%, a viability, T/C (second compound 10 µM, first compound 0.00949 µM) of 26.9% and a viability, T/C (second compound 10 µM, first compound 0.03 µM) of 23.6%. For the same molecule, the viability, T/C (second compound 10 µM, first compound 0.0949 µM) was 23% and the viability, T/C (second compound 10 µM, first compound 0.3 µM) was 19.2%.

`Nc1ncn(C2CC(O)C(CO)O2)c(=O)n1` (configuration not stated) + NC1CC1c1ccc(-c2cccc(O)c2)cc1 showed a pIC50 [1] of less than 6.00, a pIC50 [2] of less than 6.00 and a pIC50 [3] of less than 6.00. The pIC50 [4] was less than 6.00, the pIC50 [5] was less than 6.00 and the viability, T/C (second compound 0.1 µM, first compound 0.00316 µM) was 104%. The viability, T/C (second compound 0.1 µM, first compound 0.01 µM) was 101%, the viability, T/C [6] was 87.3% and the viability, T/C [7] was 75.2%. It also gave a viability, T/C [8] of 64.7%, a viability, T/C [9] of 56.8% and a viability, T/C (second compound 0.316 µM, first compound 0.00316 µM) of 110%. The viability, T/C (second compound 0.316 µM, first compound 0.01 µM) was 108%, the viability, T/C [10] was 87.5% and the viability, T/C [11] was 76.5%. The viability, T/C [12] was 67.7%, the viability, T/C [13] was 65.1% and the viability, T/C (second compound 1 µM, first compound 0.00316 µM) was 110%. For the same molecule, the viability, T/C (second compound 1 µM, first compound 0.01 µM) was 122%, the viability, T/C [14] was 96.8% and the viability, T/C [15] was 83%. The viability, T/C [16] was 65.9%, the viability, T/C [17] was 56.1% and the viability, T/C (second compound 3.16 µM, first compound 0.00316 µM) was 107%. For the same molecule, the viability, T/C (second compound 3.16 µM, first compound 0.01 µM) was 114%, the viability, T/C [18] was 92.9% and the viability, T/C [19] was 74.8%. For the same molecule, the viability, T/C [20] was 60.5%, the viability, T/C [21] was 51.8% and the viability, T/C (second compound 10 µM, first compound 0.00316 µM) was 107%. The viability, T/C (second compound 10 µM, first compound 0.01 µM) was 86.5%, the viability, T/C [22] was 74% and the viability, T/C [23] was 64.5%. The viability, T/C [24] was 61.7% and the viability, T/C [25] was 52.1%.

With `O=C(c1cc(Cc2n[nH]c(=O)c3ccccc23)ccc1F)N1CCN(C(=O)C2CC2)CC1` + NC1CCC(NC2CC2c2ccccc2)CC1 the pIC50 [1] was 5.56, the pIC50 [2] was 5.08 and the pIC50 [3] was 5.45. The pIC50 [4] was 5.42, the pIC50 [5] was 5.05 and the viability, T/C [6] was 100%. It also gave a viability, T/C [7] of 93%, a viability, T/C [8] of 93.3% and a viability, T/C [9] of 65.5%. For the same molecule, the viability, T/C (second compound 0.1 µM, first compound 3.16 µM) was 49%, the viability, T/C (second compound 0.1 µM, first compound 10 µM) was 44.4% and the viability, T/C [10] was 107%. The viability, T/C [11] was 102%, the viability, T/C [12] was 99.7% and the viability, T/C [13] was 76.2%. For the same molecule, the viability, T/C (second compound 0.316 µM, first compound 3.16 µM) was 60.1%, the viability, T/C (second compound 0.316 µM, first compound 10 µM) was 47.5% and the viability, T/C [14] was 90.8%. It also gave a viability, T/C [15] of 89.9%, a viability, T/C [16] of 90% and a viability, T/C [17] of 76.1%. The viability, T/C (second compound 1 µM, first compound 3.16 µM) was 50.8%, the viability, T/C (second compound 1 µM, first compound 10 µM) was 44.5% and the viability, T/C [18] was 94.1%. It also gave a viability, T/C [19] of 98.5%, a viability, T/C [20] of 88.6% and a viability, T/C [21] of 73.3%. The viability, T/C (second compound 3.16 µM, first compound 3.16 µM) was 51.3%, the viability, T/C (second compound 3.16 µM, first compound 10 µM) was 42.5% and the viability, T/C [22] was 104%. The viability, T/C [23] was 96.3%, the viability, T/C [24] was 89.7% and the viability, T/C [25] was 75.7%. The viability, T/C (second compound 10 µM, first compound 3.16 µM) was 58.1% and the viability, T/C (second compound 10 µM, first compound 10 µM) was 49.5%.

`CC1(C)CCC(CN2CCN(c3ccc(C(=O)NS(=O)(=O)c4ccc(NCC5CCOCC5)c([N+](=O)[O-])c4)c(Oc4cnc5[nH]ccc5c4)c3)CC2)=C(c2ccc(Cl)cc2)C1` was tested, and the viability, T/C (compound 0.0316 µM) was 107% and 103%, the viability, T/C (compound 0.1 µM) was 111% and 102% and the viability, T/C (compound 0.316 µM) was 111% and 99%. The viability, T/C (compound 1 µM) was 109% and 106%, the viability, T/C (compound 3.16 µM) was 111% and 102% and the viability, T/C (compound 10 µM) was 34.5% and 27.7%. For the same molecule, the pIC50 (curve of compound) was 5.10 and 5.15.
